Results: ChEMBL document CHEMBL1137971, “Potent small molecule CCR1 antagonists” (Bioorg Med Chem Lett, 2004)

Tests used:
[1] = target: T1, C-C chemokine receptor type 1 (Homo sapiens, UniProt P32246); assay: Inhibition of CCL3 binding to C-C chemokine receptor type 1
T1 sequence (P32246 whole entry): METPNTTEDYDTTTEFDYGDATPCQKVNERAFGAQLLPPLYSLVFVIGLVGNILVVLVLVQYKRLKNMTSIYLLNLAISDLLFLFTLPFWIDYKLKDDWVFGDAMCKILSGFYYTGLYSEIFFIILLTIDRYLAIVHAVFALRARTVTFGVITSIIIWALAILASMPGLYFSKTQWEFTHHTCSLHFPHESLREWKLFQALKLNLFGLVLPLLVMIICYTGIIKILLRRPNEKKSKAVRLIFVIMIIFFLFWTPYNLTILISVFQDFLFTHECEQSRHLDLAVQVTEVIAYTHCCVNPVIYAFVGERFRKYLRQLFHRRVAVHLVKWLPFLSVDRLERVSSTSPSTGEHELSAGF

[2] = test system: THP-1; assay: Inhibition of CCL3 induced chemotaxis in THP-1 cells; format: functional, cell-based; conditions: Homo sapiens
[3] = test system: THP-1; assay: Inhibition of CCL3 induced chemotaxis in THP-1 cells; Not active; format: functional, cell-based, Homo sapiens
[4] = species: Homo sapiens; assay: Compound inhibits CCL3 induced CD11b up-regulation on monocytes in human whole blood; format: functional, organism-based

| IC50 [1] | IC50 [2] | IC50 [3] | IC50 [4] | SMILES |
| --- | --- | --- | --- | --- |
| 2600 nM | 3000 nM | – | – | CNC(=O)[C@H](CC(C)C)C[C@H](O)[C@H](Cc1ccc(F)cc1)NC(=O)c1cnc2ccccc2n1 |
| 15 nM | 5 nM | – | – | CC1CC([C@H](C[C@H](O)[C@H](Cc2ccccc2)NC(=O)c2cnc3ccccc3n2)C(N)=O)CC(C)O1 (stereo not given in full) |
| 4200 nM | – | Not Active | – | CC[C@H](C)[C@H](NC(=O)c1cnc2ccccc2n1)[C@@H](O)C[C@@H](CC(C)C)C(=O)NC |
| 2490 nM | 3300 nM | – | – | CNC(=O)[C@H](CC(C)C)C[C@H](O)[C@H](Cc1ccccc1)NC(=O)c1ccc2ncccc2c1 |
| 26 nM | 28 nM | – | – | NC(=O)[C@@H](C[C@H](O)[C@H](Cc1ccccc1)NC(=O)c1cnc2ccccc2n1)C1CCCC1 |
| 130 nM | 890 nM | – | – | CNC(=O)[C@H](CC(C)C)C[C@H](O)[C@H](Cc1ccccc1)NC(=O)c1ccc2ccccc2n1 |
| 610 nM | 1300 nM | – | – | CNC(=O)[C@H](CC(C)C)C[C@H](O)[C@H](Cc1ccc(O)cc1)NC(=O)c1cnc2ccccc2n1 |
| 2900 nM | 2000 nM | – | – | CNC(=O)[C@H](CC(C)C)C[C@H](O)[C@H](Cc1ccc(OC)cc1)NC(=O)c1cnc2ccccc2n1 |
| 64 nM | 64 nM | – | – | CNC(=O)[C@H](CC(C)C)C[C@H](O)[C@H](Cc1ccccc1)NC(=O)c1cnc2ccccc2n1 |
| 510 nM | – | Not Active | – | CNC(=O)[C@H](CC(C)C)C[C@H](O)[C@H](Cc1ccccc1)NC(=O)c1cncc(Br)c1 |
| 16700 nM | > 25000 nM | – | – | CNC(=O)[C@H](CC(C)C)C[C@H](O)[C@H](Cc1ccccc1)NC(=O)c1cc2ccccc2nc1O |
| – | 840 nM | – | ~5 µM | CNC(=O)[C@H](CC(C)C)C[C@H](O)[C@H](CC1CCCCC1)NC(=O)c1cnc2ccccc2c1 |
| > 32000 nM | > 25000 nM | – | – | CNC(=O)[C@H](CC(C)C)C[C@H](O)[C@H](Cc1ccccc1)NC(=O)c1cccc2cccnc12 |
| 55100 nM | > 25000 nM | – | – | CN(C)CC[C@H](C[C@H](O)[C@H](Cc1ccccc1)NC(=O)c1cnc2ccccc2n1)C(N)=O |
| > 32000 nM | > 25000 nM | – | – | CNC(=O)[C@H](CC(C)C)C[C@H](O)[C@H](Cc1ccccc1)NC(=O)c1cccnc1 |
| 44800 nM | 4600 nM | – | – | CC1(C)CC([C@H](C[C@H](O)[C@H](Cc2ccccc2)NC(=O)c2cnc3ccccc3n2)C(N)=O)CC(C)(C)C1 |
| 670 nM | 560 nM | – | – | CNC(=O)[C@H](CC(C)C)C[C@H](O)[C@H](CC1CCCCC1)NC(=O)c1cnc2ccccc2n1 |

| IC50 [1] | IC50 [2] | IC50 [3] | IC50 [4] | SMILES |
| --- | --- | --- | --- | --- |
| 18500 nM | 4300 nM | – | – | CNC(=O)[C@H](CC(C)C)C[C@H](O)[C@H](Cc1ccccc1)NC(=O)c1ccnc2ccccc12 |
| 580 nM | 2400 nM | – | – | CNC(=O)[C@H](CC(C)C)C[C@H](O)[C@H](Cc1ccccc1)NC(=O)c1nccc2ccccc12 |
| 28 nM | 2 nM | – | – | CC(C)CC[C@H](C[C@H](O)[C@H](Cc1ccccc1)NC(=O)c1cnc2ccccc2n1)C(N)=O |
| – | 460 nM | – | – | CNC(=O)[C@H](CC(C)C)C[C@H](O)[C@H](Cc1ccccc1)NC(=O)c1cnc2ccccc2c1 |
| > 32000 nM | > 25000 nM | – | – | CNC(=O)[C@H](CC(C)C)C[C@H](O)[C@H](Cc1ccccc1)NC(=O)c1cnccn1 |
| 4600 nM | > 25000 nM | – | – | NC(=O)[C@H](CCO)C[C@H](O)[C@H](Cc1ccccc1)NC(=O)c1cnc2ccccc2n1 |
| 160 nM | 150 nM | – | – | CNC(=O)[C@H](CC(C)C)C[C@H](O)[C@H](Cc1ccc(Cl)c(Cl)c1)NC(=O)c1cnc2ccccc2n1 |
| 420 nM | 69 nM | – | – | CC(C)CCC[C@H](C[C@H](O)[C@H](Cc1ccccc1)NC(=O)c1cnc2ccccc2n1)C(N)=O |
| 5150 nM | 6600 nM | – | – | CNC(=O)[C@H](CC(C)C)C[C@H](O)[C@H](Cc1ccccc1)NC(=O)c1cncc2ccccc12 |
| 48 nM | 12 nM | – | – | NC(=O)[C@H](CC1CCCC1)C[C@H](O)[C@H](Cc1ccccc1)NC(=O)c1cnc2ccccc2n1 |
| 3500 nM | 12500 nM | – | – | NC(=O)[C@@H](C[C@H](O)[C@H](Cc1ccccc1)NC(=O)c1cnc2ccccc2n1)C1CCOCC1 |
| 22 nM | 8 nM | – | – | CNC(=O)[C@H](CCC(C)C)C[C@H](O)[C@H](Cc1ccccc1)NC(=O)c1cnc2ccccc2n1 |
| 8 nM | 5 nM | – | – | NC(=O)[C@@H](C[C@H](O)[C@H](Cc1ccccc1)NC(=O)c1cnc2ccccc2n1)C1CCCCC1 |
| 280 nM | 120 nM | – | – | NC(=O)[C@H](Cc1ccccc1)C[C@H](O)[C@H](Cc1ccccc1)NC(=O)c1cnc2ccccc2n1 |
| 2570 nM | 1100 nM | – | – | CNC(=O)[C@H](CC(C)C)C[C@H](O)[C@H](Cc1ccccc1)NC(=O)c1cnnc2ccccc12 |
| 10300 nM | > 25000 nM | – | – | CNC(=O)[C@H](CC(C)C)C[C@H](O)[C@H](Cc1ccccc1)NC(=O)c1ccc2ccccc2c1 |
